Read-outs that look alike come from different tables or passages of the source. Marks after values point to notes of the source that are not given here. Where a SMILES comes first, the peptide text is derived from it. The star is where a group is joined. Myristoyl = CCCCCCCCCCCCCC(=O)*

For data set [1], the system named is methacholine-induced mucin hypersecretion. Put plainly: Methacholine-induced mucin hypersecretion in ovalbumin-sensitized mouse model of asthma, BAL mucin ELISA (Balb/C mice). The data set is classed as in vivo. The following applies: for Mucin Secretion % control: peptides at 100 μM; for Mucin Secretion % of control: Table IV. The source says:
Experiments were designed to test whether or not the MANS peptide and other test peptides related thereto inhibit hypersecretion of mucin in murine airway in vivo. The ovalbumin-sensitized mouse model of allergic inflammation and asthma used in these studies was as described by Singer et al. (2004), supra. As a negative control, a control peptide containing an N-terminal myristoyl group and the same amino acids as MANS peptide but arranged in random order (i.e., the random N-terminal sequence, RNS, myristoyl-peptide 232) was tested alongside the proposed active peptides. BP2 mice, aged 6-8 wks, were immunized subcutaneously twice at weekly intervals with 1 μg of ovalbumin. After 14 days of sensitization, the animals were exposed to aerosolized ovalbumin, which causes a pronounced goblet cell hyperplasia after 72 hours. At the 72 hr time point, the secretagogue, methacholine ([…]) was delivered using a Buxco system nebulizer providing a fine aerosol for 90 seconds. Fifteen min prior to the secretagogue challenge, 50 μL of the test peptide, at 3 different concentrations (10 μM, 100 μM, or 140 μM), was administered by intratracheal route. The RNS peptide was tested at the highest dose level only (50 μL of 140 μM solution). […] Each experiment was carried out in 6 mice per point, and each set of experiments was repeated 3 times. To test strain-to-strain variations, the above experiment was repeated in Balb/C mice under similar protocol. Both stimulated and unstimulated mucin secretion, in mice treated with […] sodium acetate (data not shown), were identical to saline control. Following the methacholine challenge, the animals were sacrificed and bronchoalveolar lavage (BAL) performed on 6 animals per group for analysis of secreted mucin.
Mice were sacrificed by cervical dislocation, followed by rapid exposure of the trachea and insertion of a cannula through a small incision. Bronchoalveolar lavage (BAL) fluid was collected with 0.5 ml followed by 3×1 ml PBS containing PMSF (5 mM), EDTA (5 mM), and DTT (5 mM). BAL fluid was separated into cell-free and cell fractions via brief centrifugation prior to any analyses being performed. The cell-free supernatants were analyzed for the presence of mucin via an ELISA method using anti-mucin antibodies shown to react with mouse mucin. Specifically, a mouse anti-MUC5AC antibody that recognizes the carbohydrate portion of secreted mucin was used in these assays. Data generated from each BAL sample were normalized to total protein as determined by Bradford assay. Mucin content was expressed as the value obtained with the anti-mucin antibody minus that obtained with the non-immune control antibody. All ELISA data were statistically examined using a one-way ANOVA.
(In general: An ELISA detects its analyte on a solid surface through an enzyme-linked reagent.)

Data set [2] can be described thus: Qualitative solubility of test peptides in 0.5 N saline. It is filed as physicochemical. The following applies: pH 6.5, 20° C. (table title). As for the experimental part: Various test peptides (1 to 5 mg each) were weighed out accurately in individual 2 mL screw cap glass vials and aliquots of 25 μL of 0.5 N saline, pH 6.5, were added at 25° C. and ambient pressure. The solubility was evaluated visually. If the test peptide dissolves completely with the first aliquot of saline, its solubility was calculated and designated as more than the calculated amount. […] Similarly, if 1.7 mg of a test peptide fails to dissolve in 1.7 mL of 0.5 N saline, its solubility is stated as <1.0 mg/mL.

Data set [3] in a line: Stability of test peptides in human BALF (LC/MS/MS, first order half-life). The data set is classed as in vitro ADME. The conditions noted are these: human BALF from COPD patients. As for the experimental part: Various test peptides in human plasma, human BALF, and CF patient mucus were analyzed to determine the susceptability of the test peptide to proteolysis in the biological fluids. […] The samples were analyzed either on the same day as received or stored at −20° C. and analyzed within the following two days.
Samples of BALF collected from COPD patients were obtained and frozen. The BALF samples were thawed, mixed together and centrifuged at 10,000×g for 10 min at 4-8° C. The supernatant (0.9 mL) was spiked with 0.1 mL of 0.5 mg/mL solution of the peptide in 75 mM sodium acetate buffer at pH 7.0 and processed and analyzed as described above.
All samples were analyzed using LC/MS/MS (MDS/SCIEX, API 4000 Model). Chromatography was performed using a Phenomenex Luna C18 column, while mass spectrometry was performed using positive ion electrospray ionization.
Calibration standards were analyzed by LCMS at concentrations of 0.100 μg/mL, 1.00 μg/mL, 10.0 μg/mL, and 100 μg/mL for each peptide, with the exception of the calibration standards for peptides myr-PEPTIDE 106, PEPTIDE 106, PEPTIDE 106-NH2, PEPTIDE 106, and cyclic peptide, cyc-PEPTIDE 106, in human mucus, which were analyzed at concentrations of 0.100 μg/mL, 1.00 μg/mL, 10.0 μg/mL, and 75 μg/mL. Standards were prepared in 1% human BALF, plasma, or mucus in 50/50 water/acetonitrile mixture containing 0.2% formic acid. The instrument response values for each set of standards were fit using a 1/(concentration)^2 linear least-squares line. Sample concentrations were calculated using the slope and intercept of this line. Concentrations outside of the calibration range were determined by extrapolating the calibration curve.
Duplicate calibration standards were analyzed at a concentration of 50 μg/mL for each peptide. The instrument response values for each set of standards were fit through an intercept of 0 using an unweighted, linear least-squares line. Sample concentrations were calculated using the slope and intercept of this line.
For the analysis of peptide concentration in BALF samples, one 50 μg/mL calibration standard prepared in a mixture of BALF, water, acetonitrile, and formic acid was analyzed with each sample set.
Watson fits the log transformed data with a least-squares line to determine parameters such as Cmax (maximum concentration), intercept, rate constant, slope, and T1/2 (half-life). The resulting kinetic parameters were based on the linear fit, not the actual concentration values.
Time-zero calibration standards in solution were not included as part of the kinetic profiles.

Setting [4] is: Table II, 50 μL intratracheal 15 min before methacholine.
The mark [5] stands for this setting: cerebrospinal or other body fluid, 1st experiment, read-out: BALF t1/2 (1st exp.) (converted).
[6] abbreviates: cerebrospinal or other body fluid, 2nd experiment, read-out: BALF t1/2 (2nd exp.) (converted).

Turning to `CCCCCCCCCCCCCC(=O)N[C@@H](C)C(=O)N[C@@H](CCCCN)C(=O)NCC(=O)N[C@@H](CCC(=O)O)C(=O)N[C@@H](C)C(=O)N[C@@H](C)C(=O)N[C@@H](C)C(=O)N[C@@H](CCC(=O)O)C(=O)N[C@@H](CCCNC(=N)N)C(=O)N1CCC[C@H]1C(=O)NCC(=O)N[C@@H](CCC(=O)O)C(=O)N[C@@H](C)C(=O)N[C@@H](C)C(=O)N[C@H](C(=O)N[C@@H](C)C(=O)O)C(C)C` [myr-peptide 45] (Myristoyl-AKGEAAAERPGEAAVA-OH), in data set [1] (Table III), the “Mucin Secretion % control” value is 35** % control. The solubility (in general, the dissolved amount per volume that the medium holds) in data set [2] is greater than 80000 µg/mL.
On to `CCCCCCCCCCCCCC(=O)NCC(=O)N[C@@H](C)C(=O)N[C@@H](CCC(N)=O)C(=O)N[C@@H](Cc1ccccc1)C(=O)N[C@@H](CO)C(=O)N[C@@H](CCCCN)C(=O)N[C@H](C(=O)N[C@@H](C)C(=O)N[C@@H](C)C(=O)N[C@@H](CCCCN)C(=O)NCC(=O)N[C@@H](CCC(=O)O)C(=O)O)[C@@H](C)O` [myr-peptide 79] (Myristoyl-GAQFSKTAAKGE-OH), for which the “Mucin Secretion % control” value in data set [1] (setting [4]) is listed as 50 % control; in data set [1] (Table III), 48 % control. In data set [2], this compound showed a solubility greater than 2000 µg/mL.
Consider `CCCCCCCCCCCCCC(=O)N[C@@H](C)C(=O)N[C@@H](C)C(=O)N[C@@H](C)C(=O)N[C@@H](CCC(=O)O)C(=O)N[C@@H](CCCNC(=N)N)C(=O)N1CCC[C@H]1C(=O)NCC(=O)N[C@@H](CCC(=O)O)C(=O)N[C@@H](C)C(=O)N[C@@H](C)C(=O)N[C@H](C(=O)N[C@@H](C)C(=O)O)C(C)C` [myr-peptide 91] (Myristoyl-AAAERPGEAAVA-OH), for which the “Mucin Secretion % control” value in data set [1] (Table III) was determined as 68 % control. The compound also had a solubility in data set [2] of less than 20000 µg/mL.
On to `CCCCCCCCCCCCCC(=O)NCC(=O)N[C@@H](C)C(=O)N[C@@H](CCC(N)=O)C(=O)N[C@@H](Cc1ccccc1)C(=O)N[C@@H](CO)C(=O)N[C@@H](CCCCN)C(=O)N[C@H](C(=O)N[C@@H](C)C(=O)N[C@@H](C)C(=O)N[C@@H](CCCCN)C(N)=O)[C@@H](C)O` [myr-peptide 106-NH2] (Myristoyl-GAQFSKTAAK-NH2), for which the “Mucin Secretion % control” value in data set [1] (setting [4]) turned out to be 29.3 % control. In addition, the “Mucin Secretion % of control” value is listed as 67*+ % of control in data set [1] (peptide 10 μM) and 17** % of control in data set [1] (peptide 100 μM). In addition, the values for the half-life in data set [3] (setting [5]) and in data set [3] (setting [6]) were 10.5 h and 12.8 h, respectively. This compound returned a solubility in data set [2] of less than 10000 µg/mL.
In the case of `CCCCCCCCCCCCCC(=O)NCC(=O)N[C@@H](C)C(=O)N[C@@H](CCC(N)=O)C(=O)N[C@@H](Cc1ccccc1)C(=O)N[C@@H](CO)C(=O)N[C@@H](CCCCN)C(=O)N[C@H](C(=O)N[C@@H](C)C(=O)O)[C@@H](C)O` [myr-peptide 137] (Myristoyl-GAQFSKTA-OH), the “Mucin Secretion % control” value in data set [1] (setting [4]) stood at 55 % control. This compound displayed a solubility in data set [2] of less than 1000 µg/mL.
As to `CCCCCCCCCCCCCC(=O)N[C@@H](CCCNC(=N)N)C(=O)N1CCC[C@H]1C(=O)NCC(=O)N[C@@H](CCC(=O)O)C(=O)N[C@@H](C)C(=O)N[C@@H](C)C(=O)N[C@H](C(=O)N[C@@H](C)C(=O)O)C(C)C` [myr-peptide 153] (Myristoyl-RPGEAAVA-OH), the “Mucin Secretion % control” value in data set [1] (Table III) is reported as 50 % control. For the same compound, in data set [2], the solubility was less than 10000 µg/mL.
In the case of `CCCCCCCCCCCCCC(=O)NCC(=O)N[C@@H](CCCCN)C(=O)N[C@@H](CCC(N)=O)C(=O)N[C@@H](Cc1ccccc1)C(=O)N[C@@H](CO)C(=O)N[C@@H](CCCCN)C(=O)N[C@H](C(=O)N[C@@H](C)C(=O)N[C@@H](C)C(=O)N[C@@H](CCCCN)C(=O)NCC(=O)N[C@@H](CCC(=O)O)C(=O)O)[C@@H](C)O` [myr-peptide 233] (Myristoyl-GKQFSKTAAKGE-OH), the “Mucin Secretion % control” value in data set [1] (setting [4]) came to 21 % control. This compound displayed a solubility in data set [2] greater than 3000 µg/mL.
For `CCCCCCCCCCCCCC(=O)NCC(=O)N[C@@H](C)C(=O)N[C@@H](CCC(N)=O)C(=O)N[C@@H](Cc1ccccc1)C(=O)N[C@@H](CO)C(=O)N[C@@H](CCCCN)C(=O)N[C@H](C(=O)N[C@@H](CCCCN)C(=O)N[C@@H](C)C(=O)N[C@@H](CCCCN)C(=O)NCC(=O)N[C@@H](CCC(=O)O)C(=O)O)[C@@H](C)O` [myr-peptide 234] (Myristoyl-GAQFSKTKAKGE-OH), the “Mucin Secretion % control” value in data set [1] (setting [4]) is given as 8 % control. Also, the half-life in data set [3] (1st experiment, read-out: BALF t1/2 (1st exp.) (converted)) is 1.08 h. For the same compound, the solubility in data set [2] was greater than 3000 µg/mL.
On to `CCCCCCCCCCCCCC(=O)NCC(=O)N[C@@H](CCCCN)C(=O)N[C@@H](CCC(N)=O)C(=O)N[C@@H](Cc1ccccc1)C(=O)N[C@@H](CO)C(=O)N[C@@H](CCCCN)C(=O)N[C@H](C(=O)N[C@@H](CCCCN)C(=O)N[C@@H](C)C(=O)N[C@@H](CCCCN)C(=O)NCC(=O)N[C@@H](CCC(=O)O)C(=O)O)[C@@H](C)O` [myr-peptide 235] (Myristoyl-GKQFSKTKAKGE-OH), for which, in data set [1] (setting [4]), the “Mucin Secretion % control” value is on record as 13 % control. In data set [2], this compound registered a solubility greater than 60000 µg/mL.
For the compound `CCCCCCCCCCCCCC(=O)NCC(=O)N[C@@H](C)C(=O)N[C@@H](CCC(N)=O)C(=O)N[C@@H](C)C(=O)N[C@@H](CO)C(=O)N[C@@H](CCCCN)C(=O)N[C@H](C(=O)N[C@@H](C)C(=O)N[C@@H](C)C(=O)N[C@@H](CCCCN)C(N)=O)[C@@H](C)O` [myr-peptide 236-NH2] (Myristoyl-GAQASKTAAK-NH2), the “Mucin Secretion % control” value in data set [1] (setting [4]) was determined as 51 % control. In addition, the half-life in data set [3] (setting [5]) was 4.16 h; in data set [3] (setting [6]) it was 4.08 h. In data set [2], this compound gave a solubility of less than 10000 µg/mL.
“H-GAQFSKTAAKGE-OH [peptide 79, GAQFSKTAAKGE]”: in data set [1] (setting [4]), the “Mucin Secretion % control” value is given as 10 % control. This compound also gave a solubility in data set [2] greater than 60000 µg/mL.

The values are drawn from US9598463B2, “Mucin hypersecretion inhibitors and methods of use” (BIOMARCK PHARMACEUTICALS, LTD., priority 2005, dated 2017).
